Data on 44 compounds can be found in patent publication US8058243B2, “Method for treating a brain cancer with ifenprodil” (HSC Research and Development Limited Partnership, priority 2006, dated 2011).

The subject of this experiment is murine neural precursor cells (neurosphere cultures). Nature of the experiment: HTS of LOPAC library against secondary neurosphere cultures, MTT proliferation assay at 3 μM, day 7 (z score, P value). The format is cell-based, mouse. A general note: Formazan colour is commonly taken as a measure of viable cells.
Where [1] appears, read: LOPAC primary screen, neurosphere MTT proliferation, 3 μM, day 7.
[2] abbreviates: yes/no: significantly inhibited neurosphere proliferation (P<0.01) in the primary screen.
Where [3] appears, read: LOPAC library screen, 3 μM, MTT, secondary neurosphere cultures, day 7.
Setting [4] is: LOPAC screen, neurosphere MTT proliferation, 3 μM, day 7.
[5] abbreviates: yes/no: significantly inhibited neurosphere proliferation (P<0.01) in primary screen.
Setting [6] is: LOPAC library screen, 3 μM, MTT, neurosphere cultures.
[7] abbreviates: yes/no: significantly inhibited neurosphere proliferation in primary screen.
[8] abbreviates: yes = significantly inhibited neurosphere proliferation (P<0.01) in the primary screen.
[9] abbreviates: primary LOPAC screen, 3 μM, MTT, neurosphere proliferation.
Where [10] appears, read: yes/no: significantly inhibited neurosphere proliferation in the primary screen.
The mark [11] stands for this setting: LOPAC library screen at 3 μM, secondary neurosphere cultures, MTT.

Counter-ions that a name gives are not always drawn. Like-named read-outs stand apart in the source and are kept apart here.

Turning to `NCCCP(=O)(O)O` [3-Aminopropylphosphonic acid], the “Z Score” value was −2.331. Under setting [1], this compound gave a Z score of −2.331. For the same compound, the Activity entry under setting [2] is “yes”.
As to `CCNC(=O)[C@H]1O[C@@H](n2cnc3c(N)ncnc32)[C@H](O)[C@@H]1O` [5′-N-Ethylcarboxamidoadenosine], the “Z Score” value under setting [3] was −2.587. This compound also had a Z score under setting [1] of −2.587. The Activity result under setting [2] is “yes”.
As for `Br.Br.C=CCN1CCc2c(cc(O)c(O)c2Cl)C(c2ccccc2)C1` (racemic) [(±)-Chloro-APB dihydrobromide], the Z score under setting [4] is on record as −0.111. Besides, the Activity result under setting [5] was “no”.
On to `OC[C@H]1O[C@@H](n2cnc3c(NCCc4ccccc4)ncnc32)[C@H](O)[C@@H]1O` [N6-2-Phenylethyladenosine], for which the “Z Score” value under setting [6] is given as 0.5312. The Z score under setting [1] was found to be 0.531. Under setting [7], the Activity entry is “no”.
As for `Nc1ncnc2c1ncn2[C@@H]1O[C@H](C(=O)NC2CC2)[C@@H](O)[C@H]1O` [5′-(N-Cyclopropyl)carboxamidoadenosine], the “Z Score” value is −1.701. This compound also came in with a Z score under setting [4] of −1.701. Further, under setting [5], the Activity entry is “no”.
With `CCC1(c2ccccc2)C(=O)NCNC1=O` [Primidone], the Activity entry is “no”. Besides, under setting [6], the “Z Score” value was found to be 0.6187. Under setting [1], the Z score was 0.619.
On to `CC(C)C[C@H](N)CSSC[C@@H](N)CC(C)C.Cl.Cl` [L-Leucinethiol, oxidized dihydrochloride], for which the “Z Score” value is reported as −0.584. The same compound displayed a Z score under setting [1] of −0.584. Further, the Activity result under setting [5] is “no”.
Regarding (+)-Nicotine (+)-di-p-toluoyl tartrate, the Activity result is given as “no”, the “Z Score” value is listed as −2.233 and the Z score is on record as −2.233.
Consider `COc1ccc(C(=O)NCc2cccnc2)cc1C(=O)NCc1cccnc1` [Picotamide], for which the “Z Score” value (LOPAC library screen at 3 μM, MTT, secondary neurosphere cultures, screened in singlets) turned out to be 1.736. Besides, the Z score under setting [1] came out at 1.736. Moreover, the Activity entry under setting [7] was “no”.
On to `COc1cc(NS(C)(=O)=O)ccc1Nc1c2ccccc2nc2ccccc12` [Amsacrine hydrochloride], for which the “Z Score” value under setting [3] is on record as −11.27. Further, the Z score under setting [1] was −11.274. Moreover, under setting [8], the Activity result was “yes”.
As to `CN1CCc2cc(Cl)c(O)cc2[C@@H](c2ccccc2)C1.Cl` [R(+)-SCH-23390 hydrochloride], under setting [6], the “Z Score” value stood at 1.375. The Z score under setting [4] was 1.375. The Activity entry under setting [5] is listed as “no”.
`N/C(=N\C(=O)c1nc(Cl)c(N)nc1N)NCc1ccc(Cl)c(Cl)c1` [3′,4′-Dichlorobenzamil]: the “Z Score” value is −2.581. The compound also returned a Z score under setting [1] of −2.581. Further, the Activity result under setting [2] is “yes”.
Regarding `O=c1[nH]c2cc(C(F)(F)F)ccc2n1-c1cc(C(F)(F)F)ccc1O` [NS-1619], the “Z Score” value is −0.4878. The Z score under setting [1] was −0.488. Besides, the Activity entry under setting [7] is recorded as “no”.
Consider `Cl.c1ccc(CN(CC2=NCCN2)c2ccccc2)cc1` [Antozoline hydrochloride], for which the “Z Score” value was 0.4854. In addition, under setting [9], the Z score turned out to be 0.485. The Activity result under setting [10] was “no”.
Turning to `O=c1c2ccccc2[nH]c(=S)n1CCN1CCC(=C(c2ccc(F)cc2)c2ccc(F)cc2)CC1` [Diacylglycerol Kinase Inhibitor II], the “Z Score” value under setting [3] is recorded as −1.39. The Z score under setting [4] is recorded as −1.390. In addition, the Activity entry under setting [5] is “no”.
For `COC(=O)N1CCN(C(=O)Cc2ccc(Cl)c(Cl)c2)C(CN2CCCC2)C1.O=C(O)/C=C/C(=O)O` (racemic) [GR-89696 fumarate], the “Z Score” value is given as −0.7788. For the same compound, the Z score under setting [1] was −0.779. Under setting [2], the Activity entry is reported as “no”.
Take `Cc1ccc(S(=O)(=O)N[C@@H](Cc2ccccc2)C(=O)CCl)cc1`: the “Z Score” value is 0.3367. Further, the Z score under setting [9] was found to be 0.337. In addition, the Activity result under setting [10] is on record as “no”.
With `CO/N=C(\C(=O)N[C@@H]1C(=O)N2C(C(=O)O)=C(COC(C)=O)CS[C@H]12)c1csc(N)n1` [Cefotaxime sodium], the “Z Score” value under setting [11] is −1.096. Further, the Z score under setting [1] is −1.096. For the same compound, the Activity result under setting [2] is “no”.
For the compound R(−)-Denopamine, the “Z Score” value under setting [3] is reported as −4.486. The same compound showed a Z score under setting [1] of −4.486. In addition, the Activity entry under setting [2] was “yes”.
Take `Cl.O=c1cc(N2CCOCC2)oc2c(-c3ccccc3)cccc12` [LY-294,002 hydrochloride]: the “Z Score” value is −1.217. Under setting [1], this compound displayed a Z score of −1.217. Also, the Activity entry under setting [5] was “no”.
`CCCNC(=O)NS(=O)(=O)c1ccc(Cl)cc1` [Chlorpropamide]: the “Z Score” value under setting [11] was −0.1901. The same compound had a Z score under setting [9] of −0.190. The Activity result under setting [10] was “no”.
As for `Cl.N=C(N)c1ccccc1` [Benzamidine hydrochloride], the Activity entry is given as “no”, the “Z Score” value worked out at 1.509 and the Z score is given as 1.509.
As to `NC(=O)c1cnccn1` [Pyrazinecarboxamide], the “Z Score” value under setting [3] is recorded as −1.617. Moreover, the Z score under setting [1] is −1.617. Also, under setting [7], the Activity result was “no”.
With `CN1C2CCC1CC(OC(=O)c1cc(Cl)cc(Cl)c1)C2` (stereo not shown) [3-Tropanyl-3,5-dichlorobenzoate], the “Z Score” value is −9.272. For the same compound, the Z score under setting [1] was −9.272. Besides, under setting [2], the Activity result is given as “yes”.
With `CCC1(c2ccc(N)cc2)CCC(=O)NC1=O` (racemic) [(±)-p-Aminoglutethimide], the Activity entry is recorded as “no”. Besides, the Z score under setting [9] is −0.444.
As for `N#C/C(=C\c1ccc(O)c(O)c1)C(=O)N1CCc2ccccc21` [Tyrphostin AG 528], the “Z Score” value under setting [11] is on record as −0.1481. Further, under setting [9], the Z score is recorded as −0.148. Also, the Activity entry under setting [10] is given as “no”.
For `COc1cc(/C=C(\C#N)C(=O)c2ccc(O)c(O)c2)cc(I)c1O` [I-OMe-Tyrphostin AG 538], under setting [11], the “Z Score” value was −0.7369. Also, under setting [9], the Z score is −0.737. Under setting [10], the Activity entry is listed as “no”.
As for `O=c1cc(-c2ccc(O)c(O)c2)oc2cc(O)cc(O)c12` [Luteolin], the “Z Score” value under setting [3] is recorded as −1.323. Further, the Z score under setting [1] is reported as −1.323. For the same compound, the Activity result under setting [5] is given as “no”.
Consider `Cl.Nc1cc(Cl)c(N=C2NCCN2)c(Cl)c1` [p-Aminoclonidine hydrochloride], for which the “Z Score” value is reported as −0.04776. For the same compound, the Z score under setting [1] is reported as −0.048. Besides, the Activity result under setting [7] was “no”.
The compound `CC(C)(C)NCC(O)COc1cccc2[nH]c(=O)[nH]c12.Cl` (racemic) [(±)-CGP-12177A hydrochloride] had a Z score under setting [4] of −1.611. Besides, under setting [5], the Activity result is given as “no”.
`NC(CCCCCP(=O)(O)O)C(=O)O` (racemic) [(±)-2-Amino-7-phospheneheptanoic acid] displayed a Z score under setting [9] of −1.020. Moreover, under setting [10], the Activity entry is “no”.
As for `O=C(O)c1ccccc1Nc1cccc(OCc2ccc3ccccc3n2)c1` [SR 2640], the “Z Score” value is given as −1.548. For the same compound, the Z score under setting [1] is reported as −1.548. Also, the Activity entry under setting [7] is “no”.
With `C[C@H](NC(=O)/C(C#N)=C/c1ccc(O)c(O)c1)c1ccccc1` [Tyrphostin AG 835], the “Z Score” value was 2.23. Under setting [9], this compound displayed a Z score of 2.230. Under setting [10], the Activity entry is “no”.
`CC(N)(C(=O)O)c1ccc(C(=O)O)cc1` (racemic) [(±)-alpha-Methyl-4-carboxyphenylglycine]: the Z score under setting [1] is 0.727. Besides, the Activity result under setting [8] was “no”.
With `C#CCOC(=O)C1=CCCN(C)C1` [Arecaidine propargyl ester hydrobromide], the “Z Score” value is recorded as −9.931. Moreover, the Z score under setting [1] is recorded as −9.931. In addition, the Activity entry under setting [2] was “yes”.
`Cl.c1ccc2c(N3CCNCC3)cccc2c1` [1-(1-Naphthyl)piperazine hydrochloride]: the “Z Score” value worked out at 0.2301. Further, the Z score under setting [1] amounted to 0.230. Also, the Activity result under setting [7] was “no”.
Turning to `CC1(C)NC(=O)N(c2ccc([N+](=O)[O-])c(C(F)(F)F)c2)C1=O` [Nilutamide], under setting [6], the “Z Score” value stood at 0.1188. In addition, the Z score under setting [1] was 0.119. In addition, under setting [8], the Activity entry is on record as “no”.
Take `OCCN1CCN(CCCN2c3ccccc3Sc3ccc(C(F)(F)F)cc32)CC1` [Fluphenazine dihydrochloride]: for the setting “168 h, 3 µM”, the “Z Score” value is −10.2 and the Z score is listed as −10.197. Besides, the Activity entry under setting [2] was “yes”.
Consider `O=c1[nH]c2ccccc2n1C1CCN(CCCC(c2ccc(F)cc2)c2ccc(F)cc2)CC1` [Pimozide], for which the “Z Score” value under setting [11] is given as −0.2323. The compound also showed a Z score under setting [1] of −0.232.
As to `COC1(C2=NCCN2)COc2ccccc2O1.Cl` (stereo not shown) [RX 821002 hydrochloride], the “Z Score” value amounted to 0.249. The same compound registered a Z score under setting [1] of 0.249. Moreover, the Activity entry under setting [7] is recorded as “no”.
`CC[N+](CC)(CC)CC.[Cl-]` [Tetraethylammonium chloride]: the Activity result was “no”, the “Z Score” value is 0.123 and the Z score is given as 0.123.
`Cl.NCC(O)c1ccc(O)cc1` (stereo not shown) [(B1)-Octopamine hydrochloride]: the “Z Score” value is −1.567.
Consider `O=C(O)c1cc(O)cc(C(=O)O)n1` [Chelidamic acid], for which, for the setting “168 h, 3 µM”, the “Z Score” value is given as 0.7261 and the Z score amounted to 0.726. Also, the Activity entry under setting [5] was “no”.
Regarding `N=C(N)N1CCc2ccccc2C1` [Debrisoquin sulfate], the “Z Score” value under setting [11] is listed as −0.3034. The same compound gave a Z score under setting [4] of −0.303. Also, under setting [5], the Activity result is on record as “no”.
